Test results reported in patent publication US20030171377A1, “Antidiabetic agents” (priority 2001, published 2003).
Counter-ions that a name gives are not always drawn.

Assays:
[1] = tested on: promoter/enhancer of the murine aP2 gene (PPAR-γ ligands); experiment: 3T3-L1 Transient Reporter Assay (AD3T3-L1 Reporter), Test E; settings: for AD3T3-L1 Reporter Max. % Rosi: maximal response relative to rosiglitazone
[2] = tested on: Ob/Ob diabetic mouse model; experiment: In vivo glucose lowering, Ob/Ob diabetic mouse model; settings: for In vivo % Rosiglitazone: glucose effect relative to rosiglitazone

COc1ccc(C(Cc2ccc(OCCc3nc(-c4ccccc4)oc3C)cc2)C(=O)O)cc1 (centres unmarked) [Example 37, 2-(4-Methoxy-phenyl)-3-{4-[2-(5-methyl-2-phenyl-oxazol-4-yl)-ethoxy]-phenyl}-propionic acid]
melting point: 114.7 to 116.6 °C

CC(=O)c1cccn1[C@@H](Cc1ccc(OCCc2nc(-c3ccccc3)oc2C)cc1)C(=O)O [Example 14, (S)-2-(2-Acetyl-pyrrol-1-yl)-3-{4-[2-(5-methyl-2-phenyl-oxazol-4-yl)-ethoxy]-phenyl}-propionic acid]
melting point: 110 to 112 °C

Cc1oc(-c2ccccc2)nc1CCC(=O)c1ccc(C[C@@H](C(=O)O)n2cccc2)cc1 (stereo in doubt) [Example 31, 3-{4-[3-(5-Methyl-2-phenyl-oxazol-4-yl)-propionyl]-phenyl}-2-pyrrol-1-yl-propionic acid]
melting point: 90 to 92 °C

Cc1oc(-c2ccccc2)nc1CCOc1ccc(CC(C)(C(=O)O)c2ccccc2)cc1 (centres unmarked) [Example 39, 2-Methyl-3-{4-[2-(5-methyl-2-phenyl-oxazol-4-yl)-ethoxy]-phenyl}-2-phenyl-propionic acid]
melting point: 178 to 179 °C

Cc1oc(-c2ccccc2)nc1CCOc1ccc(C[C@@H](C(=O)O)n2cccc2C(=O)C(F)(F)F)cc1 [Example 12, (S)-3-{4-[2-(5-Methyl-2-phenyl-oxazol-4-yl)-ethoxy]-phenyl}-2-[2-(2,2,2-trifluoro-acetyl)-pyrrol-1-yl]-propionic acid]
melting point: 187 to 188 °C

Cc1oc(-c2ccccc2)nc1CCOc1ccc(CC(F)(C(=O)O)c2ccccc2)cc1 (centres unmarked) [Example 41, 2-Fluoro-3-{4-[2-(5-methyl-2-phenyl-oxazol-4-yl)-ethoxy]-phenyl}-2-phenyl-propionic acid]
melting point: 163 to 165 °C

Cc1oc(-c2ccccc2)nc1CCCc1ccc(CC(C(=O)O)n2cccn2)cc1 (racemic) [Example 0339165, 3-{4-[3-(5-Methyl-2-phenyl-oxazol-4-yl)-propyl]-phenyl}-2-pyrazol-1-yl-propionic acid]
AD3T3-L1 Reporter Max. % Rosi [1]: 90 % Rosi | In vivo % Rosiglitazone [2]: 102.49%

Cc1oc(-c2ccccc2)nc1CCOc1ccc(CC(C)(C(=O)O)c2ccsc2)cc1 (centres unmarked) [Example 74, 2-Methyl-3-{4-[2-(5-methyl-2-phenyl-oxazol-4-yl)-ethoxy]-phenyl}-2-thiophen-3-yl-propionic acid]
melting point: 165 to 166 °C

Cc1oc(-c2ccccc2)nc1CCOc1ccc(C[C@@](C)(C(=O)O)n2ccc(Br)c2)cc1 (stereo in doubt) [Example 58, 2-(3-Bromo-pyrrol-1-yl)-2-methyl-3-{4-[2-(5-methyl-2-phenyl-oxazol-4-yl)-ethoxy]-phenyl}-propionic acid]
melting point: 158 to 159 °C

Cc1oc(-c2ccccc2)nc1CCOc1ccc(CC(F)(C(=O)NS(C)(=O)=O)c2ccccc2)cc1 (centres unmarked) [Example 76, N-(2-Fluoro-3-{4-[2-(5-methyl-2-phenyl-oxazol-4-yl)-ethoxy]-phenyl}-2-phenyl-propionyl)-methanesulfonamide]
melting point: 118 to 120 °C

Cc1oc(-c2ccccc2)nc1CCOc1ccc(CC(C)(C)C(=O)NS(C)(=O)=O)cc1 [Example 75, N-(2,2-Dimethyl-3-{4-[2-(5-methyl-2-phenyl-oxazol-4-yl)-ethoxy]-phenyl}-propionyl)-methanesulfonamide]
melting point: 112 to 113 °C

O=C(O)[C@H](Cc1ccc(OCCn2c(-c3ccccc3)nc3ccccc32)cc1)n1cccc1 (stereo in doubt) [Example 23, 3-{4-[2-(2-Phenyl-benzimidazol-1-yl)-ethoxy]-phenyl}-2-pyrrol-1-yl-propionic acid]
melting point: 210 to 212 °C

Cc1oc(-c2ccccc2)nc1CCOc1ccc(C[C@@](C)(C(=O)O)n2cccc2)cc1 [Example 52]
melting point: 149.5 to 150.5 °C

Cc1oc(-c2ccccc2)nc1CCCc1ccc(CC(C(=O)O)n2cncn2)cc1 (centres unmarked) [Example 0336683]
EC50 ([1]; Mus musculus, 3T3-L1, read-out: AD3T3-L1 Reporter EC50(nM)): 9700 nM | AD3T3-L1 Reporter Max. % Rosi [1]: 62.8 % Rosi | In vivo Δ Glucose@ 20 mg/kg ([2]; 20 mg/kg): −53 | In vivo % Rosiglitazone [2]: 24.38%

Cc1oc(-c2ccccc2)nc1CCCc1ccc(CC(C(=O)O)n2ccnn2)cc1 (centres unmarked) [Example 0338227]
AD3T3-L1 Reporter Max. % Rosi [1]: 59 % Rosi

O=C(O)[C@H](Cc1ccc(C#CCN2CCC(c3ccccc3)CC2)cc1)n1cccc1 [Example 121c, (S)-3-{4-[3-(4-Phenyl-piperidin-1-yl)-prop-1-ynyl]-phenyl}-2-pyrrol-1-yl-propionic acid]
melting point: 201 to 203 °C

Cc1oc(-c2ccccc2)nc1CCOc1ccc(C[C@@H](C(=O)O)c2cccs2)cc1 (stereo in doubt) (hydrate or solvate) [Example 32, 3-{4-[2-(5-Methyl-2-phenyl-oxazol-4-yl)-ethoxy]-phenyl}-2-thiophen-2-yl-propionic acid]
melting point: 146 to 147 °C

CCc1nnc(C(Cc2ccc(OCCc3nc(-c4ccccc4)oc3C)cc2)c2ccccc2)o1 (centres unmarked) [Example 43, 2-Ethyl-5-(2-{4-[2-(5-methyl-2-phenyl-oxazol-4-yl)-ethoxy]-phenyl}-1-phenyl-ethyl)-1,3,4-oxadiazole]
melting point: 110 °C

CC(C(=O)O)n1ccc2c(OCc3ccccc3)cccc21 (centres unmarked) [Example 60, 2-(4-Benzyloxy-indol-1-yl)-propionic acid]
melting point: 143 to 146 °C

CC(=O)N(CCc1nc(-c2ccccc2)oc1C)Cc1ccc(C[C@@H](C(=O)O)n2cccc2)cc1 [Example 111, (S)-3-[4-({Acetyl-[2-(5-methyl-2-phenyl-oxazol-4-yl)-ethyl]-amino}-methyl)-phenyl]-2-pyrrol-1-yl-propionic acid]
melting point: 82 to 87 °C

Cc1oc(-c2ccccc2)nc1CCC(=O)c1ccc(CC(C(=O)O)n2cccc2)cc1 (centres unmarked) [Example 44, 3-{4-[3-(5-Methyl-2-phenyl-oxazol-4-yl)-propionyl]-phenyl}-2-pyrrol-1-yl-propionic acid]
melting point: 90 to 92 °C

Cc1oc(-c2ccccc2)nc1CCN(Cc1ccccc1)Cc1ccc(C[C@@H](C(=O)O)n2cccc2)cc1 (as salt: salt)
melting point: 110 to 113 °C

Cc1oc(-c2ccccc2)nc1CCCc1ccc(CC(C(=O)O)n2cncn2)cc1 (centres unmarked) [Example 94]
melting point: 169 to 171 °C

Cc1oc(-c2ccccc2)nc1CCOc1cccc2c1ccn2C(C)C(=O)O (centres unmarked) [Example 65, 2-(4-[2-(5-Methyl-2-phenyl-oxazol-4-yl)-ethoxy]-indol-1-yl)-propionic acid]
melting point: 157 to 159 °C

O=C(O)[C@H](Cc1ccc(CCCN2CCC(c3ccccc3)CC2)cc1)n1cccc1 [Example 131c, (S)-3-{4-[3-(4-Phenyl-piperidin-1-yl)-propyl]-phenyl}-2-pyrrol-1-yl-propionic acid]
melting point: 95 to 100 °C

Cc1cc(C(Cc2ccc(CCCc3nc(-c4ccccc4)oc3C)cc2)C(=O)O)on1 (centres unmarked) [Example 104, 2-(3-Methyl-isoxazol-5-yl)-3-{4-[3-(5-methyl-2-phenyl-oxazol-4-yl)-propyl]-phenyl}-propionic acid]
melting point: 133 to 135 °C

Cc1oc(-c2ccccc2)nc1CCOc1ccc(C[C@@H](C(=O)O)n2ccc(-c3ccccc3)c2)cc1 [Example 4, (S)-3-{4-[2-(5-Methyl-2-phenyl-oxazol-4-yl)-ethoxy]-phenyl}-2-(3-phenyl-pyrrol-1-yl)-propionic acid]
melting point: 146 to 147 °C

Cc1oc(-c2ccccc2)nc1CCOc1ccc(CC(C)(C)C(=O)O)cc1 [Example 40, 2,2-Dimethyl-3-{4-[2-(5-methyl-2-phenyl-oxazol-4-yl)-ethoxy]-phenyl}-propionic acid]
melting point: 133 to 134 °C

Cc1sc(-c2ccccc2)nc1CCOc1ccc(C[C@@H](C(=O)O)n2cccc2)cc1 [Example 18, (S)-3-{4-[2-(5-Methyl-2-phenyl-thiazol-4-yl)-ethoxy]-phenyl}-2-pyrrol-1-yl-propionic acid]
melting point: 157 to 158 °C

Cc1oc(-c2ccccc2)nc1CCOc1ccc(CC(C(=O)O)(n2cccc2)C(F)(F)F)cc1 (centres unmarked) [Example 159, 3,3,3-Trifluoro-2-{4-[2-(5-methyl-2-phenyl-oxazol-4-yl)-ethoxy]-benzyl}-2-pyrrol-1-yl-propionic acid]
melting point: 201 to 203 °C

Cc1oc(-c2ccccc2)nc1CCOc1ccc(CC(C(=O)O)c2nc(-c3ccccc3)oc2C)cc1 (centres unmarked) [Example 79, 2-(5-Methyl-2-phenyl-oxazol-4-yl)-3-{4-[2-(5-methyl-2-phenyl-oxazol-4-yl)-ethoxy]-phenyl}-propionic acid]
melting point: 120 °C

O=C(O)[C@H](Cc1ccc(/C=C/CN2CCC(c3ccccc3)CC2)cc1)n1cccc1 [Example 129d, (S)-3-{4-[(E)-3-(4-Phenyl-piperidin-1-yl)-propenyl]-phenyl}-2-pyrrol-1-yl-propionic acid]
melting point: 126 to 130 °C

Cc1oc(-c2ccccc2)nc1CCOc1ccc(C[C@@H](C(=O)O)c2ccccc2)cc1 [Example 36, 3-{4-[2-(5-Methyl-2-phenyl-oxazol-4-yl)-ethoxy]-phenyl}-2-phenyl-propionic acid (R)]
melting point: 124.1 to 125 °C

Cc1oc(-c2ccccc2)nc1CCOc1ccc(CC(C)(C(=O)O)c2cccs2)cc1 (centres unmarked) [Example 73, 2-Methyl-3-{4-[2-(5-methyl-2-phenyl-oxazol-4-yl)-ethoxy]-phenyl}-2-thiophen-2-yl-propionic acid]
melting point: 165 to 166 °C
